Results reported in PubChem BioAssay (NCI).
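Five compound concentrations were applied to cells in 96-well plates for 48 hours; endpoints were derived by simple linear interpolation of the resulting dose-response curve. The concentration for full growth arrest is given as TGI.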

Legend:
Experiment in all cases: DTP human tumour cell line panel, 48 h
OVCAR-5 ovarian = test system: OVCAR-5 ovarian
A549 NSCLC = test system: A549 NSCLC
COLO 205 colon = test system: COLO 205 colon
SF-295 CNS = test system: SF-295 CNS
U251 CNS = test system: U251 CNS
CAKI-1 renal = test system: CAKI-1 renal
MDA-N = test system: MDA-N
TK-10 renal = test system: TK-10 renal
HT29 colon = test system: HT29 colon
NCI-H522 lung = test system: NCI-H522 lung
A498 renal = test system: A498 renal
NCI-H23 lung = test system: NCI-H23 lung
SK-MEL-5 melanoma = test system: SK-MEL-5 melanoma
SR leukemia = test system: SR leukemia
SF-268 CNS = test system: SF-268 CNS
HCT-15 colon = test system: HCT-15 colon
PC-3 prostate = test system: PC-3 prostate
UACC-257 melanoma = test system: UACC-257 melanoma
NCI-H226 lung = test system: NCI-H226 lung
HS 578T breast = test system: HS 578T breast
SK-MEL-2 melanoma = test system: SK-MEL-2 melanoma
SW-620 colon = test system: SW-620 colon
HL-60(TB) leukemia = test system: HL-60(TB) leukemia
MOLT-4 leukemia = test system: MOLT-4 leukemia
SNB-19 CNS = test system: SNB-19 CNS
ACHN renal = test system: ACHN renal
UACC-62 melanoma = test system: UACC-62 melanoma
IGROV1 ovarian = test system: IGROV1 ovarian
KM12 colon = test system: KM12 colon
UO-31 renal = test system: UO-31 renal
SF-539 CNS = test system: SF-539 CNS
M14 melanoma = test system: M14 melanoma
OVCAR-8 ovarian = test system: OVCAR-8 ovarian
OVCAR-4 ovarian = test system: OVCAR-4 ovarian
T-47D breast = test system: T-47D breast
EKVX NSCLC = test system: EKVX NSCLC
BT-549 breast = test system: BT-549 breast
786-0 renal = test system: 786-0 renal
SK-OV-3 ovarian = test system: SK-OV-3 ovarian
MALME-3M melanoma = test system: MALME-3M melanoma
RPMI-8226 leukemia = test system: RPMI-8226 leukemia
K-562 leukemia = test system: K-562 leukemia
SK-MEL-28 melanoma = test system: SK-MEL-28 melanoma
DU-145 prostate = test system: DU-145 prostate
SN12C renal = test system: SN12C renal
RXF 393 renal = test system: RXF 393 renal
NCI/ADR-RES ovarian = test system: NCI/ADR-RES ovarian
CCRF-CEM leukemia = test system: CCRF-CEM leukemia
HOP-92 NSCLC = test system: HOP-92 NSCLC
MDA-MB-435 = test system: MDA-MB-435
MDA-MB-231 breast = test system: MDA-MB-231 breast
HCT-116 colon = test system: HCT-116 colon
NCI-H460 lung = test system: NCI-H460 lung
SNB-75 CNS = test system: SNB-75 CNS
OVCAR-3 ovarian = test system: OVCAR-3 ovarian
HCC-2998 colon = test system: HCC-2998 colon
HOP-62 NSCLC = test system: HOP-62 NSCLC
LOX IMVI melanoma = test system: LOX IMVI melanoma
MCF7 breast = test system: MCF7 breast

## NCCC1([N+](=O)[O-])C=CN=CC1 (stereo not given)
OVCAR-5 ovarian
  TGI: > 100 µM
A549 NSCLC
  TGI: > 100 µM
COLO 205 colon
  TGI: > 100 µM
SF-295 CNS
  TGI: > 100 µM
U251 CNS
  TGI: > 100 µM
CAKI-1 renal
  TGI: > 100 µM
MDA-N
  TGI: > 100 µM
TK-10 renal
  TGI: > 100 µM
HT29 colon
  TGI: > 100 µM
NCI-H522 lung
  TGI: > 100 µM
A498 renal
  TGI: > 100 µM
NCI-H23 lung
  TGI: > 100 µM
SK-MEL-5 melanoma
  TGI: > 100 µM
SR leukemia
  TGI: > 100 µM
SF-268 CNS
  TGI: > 100 µM
HCT-15 colon
  TGI: > 100 µM
PC-3 prostate
  TGI: > 100 µM
UACC-257 melanoma
  TGI: > 100 µM
NCI-H226 lung
  TGI: > 100 µM
HS 578T breast
  TGI: > 100 µM
SK-MEL-2 melanoma
  TGI: > 100 µM
SW-620 colon
  TGI: > 100 µM
HL-60(TB) leukemia
  TGI: > 100 µM
MOLT-4 leukemia
  TGI: > 100 µM
SNB-19 CNS
  TGI: > 100 µM
ACHN renal
  TGI: > 100 µM
UACC-62 melanoma
  TGI: > 100 µM
IGROV1 ovarian
  TGI: > 100 µM
KM12 colon
  TGI: > 100 µM
UO-31 renal
  TGI: > 100 µM
SF-539 CNS
  TGI: > 100 µM
M14 melanoma
  TGI: > 100 µM
OVCAR-8 ovarian
  TGI: > 100 µM
OVCAR-4 ovarian
  TGI: > 100 µM
T-47D breast
  TGI: > 100 µM
EKVX NSCLC
  TGI: > 100 µM
BT-549 breast
  TGI: > 100 µM
786-0 renal
  TGI: > 100 µM
SK-OV-3 ovarian
  TGI: > 100 µM
MALME-3M melanoma
  TGI: > 100 µM
RPMI-8226 leukemia
  TGI: > 100 µM
K-562 leukemia
  TGI: > 100 µM
SK-MEL-28 melanoma
  TGI: > 100 µM
DU-145 prostate
  TGI: > 100 µM
SN12C renal
  TGI: > 100 µM
RXF 393 renal
  TGI: > 100 µM
NCI/ADR-RES ovarian
  TGI: > 100 µM
CCRF-CEM leukemia
  TGI: > 100 µM
HOP-92 NSCLC
  TGI: 26.8 µM
MDA-MB-435
  TGI: > 100 µM
MDA-MB-231 breast
  TGI: > 100 µM
HCT-116 colon
  TGI: > 100 µM
NCI-H460 lung
  TGI: > 100 µM
SNB-75 CNS
  TGI: > 100 µM

## COC(=O)[C@@H]1CCc2nc3ccccc3c(=O)n21
OVCAR-5 ovarian
  TGI: > 100 µM
A549 NSCLC
  TGI: > 100 µM
COLO 205 colon
  TGI: > 100 µM
SF-295 CNS
  TGI: > 100 µM
U251 CNS
  TGI: > 100 µM
CAKI-1 renal
  TGI: > 100 µM
MDA-N
  TGI: > 100 µM
TK-10 renal
  TGI: > 100 µM
HT29 colon
  TGI: > 100 µM
NCI-H522 lung
  TGI: > 100 µM
A498 renal
  TGI: > 100 µM
NCI-H23 lung
  TGI: > 100 µM
SK-MEL-5 melanoma
  TGI: > 100 µM
SR leukemia
  TGI: > 100 µM
SF-268 CNS
  TGI: > 100 µM
HCT-15 colon
  TGI: > 100 µM
UACC-257 melanoma
  TGI: > 100 µM
NCI-H226 lung
  TGI: > 100 µM
HS 578T breast
  TGI: > 100 µM
OVCAR-3 ovarian
  TGI: > 100 µM
SK-MEL-2 melanoma
  TGI: > 100 µM
SW-620 colon
  TGI: > 100 µM
HL-60(TB) leukemia
  TGI: > 100 µM
MOLT-4 leukemia
  TGI: > 100 µM
ACHN renal
  TGI: > 100 µM
UACC-62 melanoma
  TGI: > 100 µM
IGROV1 ovarian
  TGI: > 100 µM
KM12 colon
  TGI: > 100 µM
UO-31 renal
  TGI: > 100 µM
M14 melanoma
  TGI: > 100 µM
OVCAR-8 ovarian
  TGI: > 100 µM
OVCAR-4 ovarian
  TGI: > 100 µM
T-47D breast
  TGI: > 100 µM
EKVX NSCLC
  TGI: > 100 µM
BT-549 breast
  TGI: > 100 µM
786-0 renal
  TGI: > 100 µM
SK-OV-3 ovarian
  TGI: > 100 µM
RPMI-8226 leukemia
  TGI: > 100 µM
K-562 leukemia
  TGI: > 100 µM
SK-MEL-28 melanoma
  TGI: > 100 µM
HCC-2998 colon
  TGI: > 100 µM
DU-145 prostate
  TGI: > 100 µM
HOP-62 NSCLC
  TGI: > 100 µM
SN12C renal
  TGI: > 100 µM
NCI/ADR-RES ovarian
  TGI: > 100 µM
CCRF-CEM leukemia
  TGI: > 100 µM
HOP-92 NSCLC
  TGI: > 100 µM
MDA-MB-435
  TGI: > 100 µM
LOX IMVI melanoma
  TGI: > 100 µM
MDA-MB-231 breast
  TGI: > 100 µM
HCT-116 colon
  TGI: > 100 µM
NCI-H460 lung
  TGI: > 100 µM
SNB-75 CNS
  TGI: > 100 µM

## CN(C)c1nc2nonc2nc1Nc1ccccc1
OVCAR-5 ovarian
  TGI: > 100 µM
A549 NSCLC
  TGI: > 100 µM
COLO 205 colon
  TGI: > 100 µM
SF-295 CNS
  TGI: > 100 µM
U251 CNS
  TGI: > 100 µM
MDA-N
  TGI: > 100 µM
TK-10 renal
  TGI: > 100 µM
HT29 colon
  TGI: > 100 µM
NCI-H522 lung
  TGI: > 100 µM
A498 renal
  TGI: > 100 µM
NCI-H23 lung
  TGI: > 100 µM
SK-MEL-5 melanoma
  TGI: > 100 µM
SR leukemia
  TGI: > 100 µM
SF-268 CNS
  TGI: > 100 µM
HCT-15 colon
  TGI: > 100 µM
PC-3 prostate
  TGI: > 100 µM
UACC-257 melanoma
  TGI: > 100 µM
NCI-H226 lung
  TGI: > 100 µM
HS 578T breast
  TGI: > 100 µM
SK-MEL-2 melanoma
  TGI: > 100 µM
SW-620 colon
  TGI: > 100 µM
HL-60(TB) leukemia
  TGI: > 100 µM
MOLT-4 leukemia
  TGI: > 100 µM
SNB-19 CNS
  TGI: > 100 µM
ACHN renal
  TGI: > 100 µM
UACC-62 melanoma
  TGI: > 100 µM
IGROV1 ovarian
  TGI: > 100 µM
UO-31 renal
  TGI: > 100 µM
M14 melanoma
  TGI: > 100 µM
MCF7 breast
  TGI: > 100 µM
OVCAR-8 ovarian
  TGI: > 100 µM
T-47D breast
  TGI: > 100 µM
EKVX NSCLC
  TGI: > 100 µM
BT-549 breast
  TGI: > 100 µM
786-0 renal
  TGI: > 100 µM
SK-OV-3 ovarian
  TGI: > 100 µM
MALME-3M melanoma
  TGI: > 100 µM
RPMI-8226 leukemia
  TGI: > 100 µM
K-562 leukemia
  TGI: > 100 µM
SK-MEL-28 melanoma
  TGI: > 100 µM
HCC-2998 colon
  TGI: > 100 µM
DU-145 prostate
  TGI: > 100 µM
HOP-62 NSCLC
  TGI: > 100 µM
SN12C renal
  TGI: > 100 µM
RXF 393 renal
  TGI: > 100 µM
NCI/ADR-RES ovarian
  TGI: > 100 µM
CCRF-CEM leukemia
  TGI: > 100 µM
HOP-92 NSCLC
  TGI: > 100 µM
LOX IMVI melanoma
  TGI: > 100 µM
MDA-MB-231 breast
  TGI: > 100 µM
HCT-116 colon
  TGI: > 100 µM
NCI-H460 lung
  TGI: > 100 µM
SNB-75 CNS
  TGI: > 100 µM
